Data as given in patent publication US10448639B2, “Fungicidal pyrazoles” (FMC CORPORATION, priority 2009, dated 2019).
Marks after values point to notes of the source that are not given here.

Columns and labels:
[1] = system: Puccinia recondita f. sp. tritici; assay: Test I: wheat leaf rust, preventive spray on wheat seedlings, visual disease rating; conditions: wheat leaf rust; for Test I disease control rating: sprayed the day before inoculation, 100 = 100% disease control, 0 = no disease control relative to controls
Botrytis cinerea = assay: Test B: tomato Botrytis, preventive spray on tomato seedlings, visual disease rating; conditions: tomato Botrytis; for Test B disease control rating: 100 = 100% disease control, 0 = no disease control relative to controls
Septoria tritici = assay: Test G: wheat leaf blotch, preventive spray on wheat seedlings, visual disease rating; conditions: wheat leaf blotch; for Test G disease control rating: sprayed the day before inoculation, 100 = 100% disease control, 0 = no disease control relative to controls
Description: (§1) General protocol for preparing test suspensions for Tests A-J: the test compounds were first dissolved in acetone in an amount equal to 3% of the final volume and then suspended at the desired concentration (in ppm) in acetone and purified water (50/50 mix by volume) containing 250 ppm of the surfactant Trem® 014 (polyhydric alcohol esters). The resulting test suspensions were then used in Tests A-J. Spraying a 200 ppm test suspension to the point of run-off on the test plants was the equivalent of a rate of 500 g/ha. Unless otherwise indicated, the rating values indicate a 200 ppm test suspension was used. (An asterisk “*” next to the rating value indicates a 40 ppm test suspension was used.)
The test suspension was sprayed to the point of run-off on wheat seedlings. The following day the seedlings were inoculated with a spore suspension of Septoria tritici (the causal agent of wheat leaf blotch) and incubated in saturated atmosphere at 24° C. for 48 h. and then the seedlings were moved to a growth chamber at 20° C. for 19 additional days, after which time visual disease ratings were made.

Alternaria solani = assay: Test C: tomato early blight, preventive spray on tomato seedlings, visual disease rating; conditions: tomato early blight; for Test C disease control rating: 100 = 100% disease control, 0 = no disease control relative to controls
[2] = system: Erysiphe graminis f sp. tritici; assay: Test J: wheat powdery mildew, preventive spray on wheat seedlings, visual disease rating; conditions: wheat powdery mildew; for Test J disease control rating: sprayed the day before inoculation, 100 = 100% disease control, 0 = no disease control relative to controls
Septoria nodorum = assay: Test F: Septoria glume blotch, preventive spray on wheat seedlings, visual disease rating; conditions: for Test F disease control rating: Septoria glume blotch on wheat, 100 = 100% disease control, 0 = no disease control relative to controls
[3] = system: Puccinia recondita f. sp. tritici; assay: Test H: wheat leaf rust, curative spray on inoculated wheat seedlings, visual disease rating; conditions: wheat leaf rust; for Test H disease control rating: sprayed after inoculation, 100 = 100% disease control, 0 = no disease control relative to controls
Description: as §1
Wheat seedlings were inoculated with a spore suspension of Puccinia recondita f. sp. tritici (the causal agent of wheat leaf rust) and incubated in a saturated atmosphere at 20° C. for 24 h, and then moved to a growth chamber at 20° C. for 2 days. At the end of this time the test suspension was sprayed to the point of run-off, and then the seedlings were moved to a growth chamber at 20° C. for 6 days after which time visual disease ratings were made.

[4] = rating marked with asterisk (*), meaning not given

SMILES	Test I rating (% disease control), marked * ([1]; preventive, rating marked with asterisk (*), meaning not given)	Test B rating (% disease control), marked * (Botrytis cinerea; [4])	Test G rating (% disease control), marked * (Septoria tritici; [4])	Test C rating (% disease control), marked * (Alternaria solani; [4])	Test J rating (% disease control), marked * [2, 4]	Test F rating (% disease control), marked * (Septoria nodorum; Septoria glume blotch, rating marked with asterisk (*), meaning not given)	Test H rating (% disease control), marked * ([3]; curative, rating marked with asterisk (*), meaning not given)	Test I disease control rating [1]	Test B disease control rating (Botrytis cinerea)	Test G disease control rating (Septoria tritici)	Test C disease control rating (Alternaria solani)	Test J disease control rating [2]	Test F disease control rating (Septoria nodorum)	Test H disease control rating [3]
Cc1nn(C)c(Nc2ccc(F)cc2F)c1-c1cccc(Cl)c1Cl [compound 302]	18* %	99* %	99* %	0* %	97* %	0* %	0* %							
Cc1nn(C)c(Nc2ncc(Cl)cc2Cl)c1-c1cccc(Cl)c1Cl [compound 303]								92%	99%	98%	0%	71%	0%	0%
Cc1nn(C)c(Oc2c(F)cc(C#N)cc2F)c1-c1ccccc1F [compound 305]								99%	99%	100%	99%	99%	94%	0%
Cc1nn(C)c(Oc2c(F)cc(C#N)cc2F)c1-c1ccccc1C(F)(F)F [compound 306]								28%	7%	93%	0%	64%	0%	0%
Cc1nn(C)c(Oc2c(F)cc(C#N)cc2F)c1-c1cc(C(F)(F)F)ccc1Cl [compound 307]								0%	0%	0%	0%	0%	0%	0%
Cc1nn(C)c(Oc2c(F)cc(C#N)cc2F)c1-c1cccnc1Cl [compound 308]								100%	81%	98%	0%	0%	0%	9%
COc1ccc(-c2c(C)nn(C)c2Oc2ccc(C#N)cc2F)c(Cl)c1 [compound 310]								99%	100%	100%	99%	96%	99%	0%
COc1ccc(-c2c(C)nn(C)c2Oc2ccc(C#N)cc2Cl)c(Cl)c1 [compound 311]								99%	100%	100%	0%	91%	60%	0%
Cc1nn(C)c(Nc2ccc(F)cc2Br)c1-c1ccc(F)cc1Br [compound 313]								100%	100%	100%	97%	100%	51%	91%
Cc1nn(C)c(Nc2ccc(F)cc2Cl)c1-c1ccc(F)cc1Br [compound 314]								100%	100%	100%	95%	100%	0%	94%
Cc1nn(C)c(Nc2ccc(F)cc2F)c1-c1ccccc1Cl [compound 315]								96%	99%	100%	99%	100%	0%	0%
COc1ccc(-c2c(C)nn(C)c2Oc2ccc(C#N)cc2Cl)c(Br)c1 [compound 318]								97%	99%	100%	0%	89%	0%	0%
COc1ccc(-c2c(C)nn(C)c2Oc2ccc(C#N)cc2F)c(Br)c1 [compound 319]								99%	92%	100%	88%	95%	100%	0%
Cc1nn(C)c(Nc2ncc(Cl)cc2Cl)c1-c1ccccc1Cl [compound 320]								99%	99%	100%	67%	98%	0%	0%
Cc1nn(C)c(Nc2ncc(Cl)cc2Cl)c1-c1c(F)cccc1F [compound 321]								99%	100%	100%	99%	100%	78%	9%
COc1ccc(Nc2c(-c3ccc(F)cc3Cl)c(C)nn2C)c(Cl)c1 [compound 322]								100%	100%	100%	93%	100%	0%	99%
COc1ccc(Nc2c(-c3ccc(F)cc3Br)c(C)nn2C)c(Cl)c1 [compound 324]								99%	99%	100%	83%	99%	0%	63%
CCOc1ccc(Nc2c(-c3ccc(F)cc3Cl)c(C)nn2C)c(Cl)c1 [compound 325]								97%	100%	100%	0%	99%	0%	0%
Cc1nn(C)c(Nc2ccc(Cl)cc2Cl)c1-c1c(Cl)cccc1Cl [compound 327]								96%	99%	100%	0%	99%	0%	0%
Cc1nn(C)c(Nc2ncc(Cl)cc2Cl)c1-c1ccc(F)cc1F [compound 328]								98%	100%	100%	86%	100%	0%	0%
Cc1nn(C)c(Oc2c(F)cc(C#N)cc2F)c1-c1cc(F)ccc1F [compound 329]								100%	100%	100%	99%	100%	69%	0%
Cc1nn(C)c(Nc2ccc(F)cc2F)c1-c1ccc(C#N)cc1Cl [compound 331]								100%	100%	100%	80%	97%	73%	8%
COc1ccc(Nc2c(-c3c(Cl)cccc3Cl)c(C)nn2C)cc1 [compound 333]								74%	100%	100%	0%	0%	0%	9%
Cc1nn(C)c(Nc2ccc(F)cc2Cl)c1-c1c(Cl)cccc1Cl [compound 334]								97%	100%	100%	0%	100%	0%	0%
Cc1nn(C)c(Nc2ccc(F)cc2)c1-c1c(Cl)cccc1Cl [compound 337]								41%	99%	99%	0%	98%	0%	9%
